Reference: publication PMC3561363, “A Novel Retro-Inverso Peptide Inhibitor Reduces Amyloid Deposition, Oxidation and Inflammation and Stimulates Neurogenesis in the APPswe/PS1ΔE9 Mouse Model of Alzheimer’s Disease” (PLoS ONE, 2013)
Where a SMILES comes first, the peptide text is derived from it.

How the values were obtained:
Aβ42 [1] = test: Immunoassay for Aβ oligomers (in vitro), 6E10/biotinylated 6E10 sandwich; format: biochemical; conditions: 2∶1 and 1∶1 molar ratios of inhibitor:Aβ42; 12.5 µM Aβ42, PBS pH 7.4, 25°C, even at earliest time points 4 and 8 h
Procedure: This is a more sensitive test than the ThT assay for the detection of early oligomeric forms of Aβ [16]. Microtitre plates (96-well, Maxisorb) were coated with 6E10, diluted 1∶1000 in 10 mM PBS, pH 7.4, for overnight at 4°C. The plates were blocked with assay buffer (Tris-buffered saline (TBS) (pH 7.4), containing 0.05% γ-globulins and 0.005% Tween 20) plus 5% gelatine for 1 h at 37°C. Samples of peptide (12.5 µM Aβ42 and 0, 3.125, 6.25, 12.5, 25 or 62.5 µM RI-OR2–TAT in 10 mM PBS, pH 7.4) were incubated at 25°C for 0, 4, 8, 24 or 48 h, diluted to 1 µM Aβ, and plated in triplicate. The plates were incubated for 1 h at 37°C and then washed with PBS plus 0.05% Tween-20 (PBST). A 1∶1,000 dilution of biotinylated 6E10 was then added to each well, left for 1 h at 37°C, and the plates were washed with PBST. Europium-linked streptavidin was then added to the wells at 1∶500 dilution in StrepE buffer (TBS containing 20 µM DTPA, 0.5% bovine serum albumin, and 0.05% γ-globulins), incubated for 1 h, and washed as before. Enhancer solution was added and the plates were read on a Wallac Victor 2 plate reader, using the time-resolved fluorescence setting for europium.

[2] = system: activated microglia (Iba1) in APP/PS1 mouse cortex; test: Activated microglia, Iba1 immunostaining, cortex; format: in vivo; conditions: 100 nmol/kg i.p. once daily, 21 days, 10 months old APP/PS1 mice, vs saline, p<0.0001, 4 animals per group
Procedure: (§1) APPswe/PS1ΔE9 mice with a C57Bl/6 background (APP/PS1 mice) were obtained from the Jackson lab (http://research.jax.org/repository/alzheimers.html). […] To look at the effects of RI-OR2-TAT on mouse brain pathology (experiment 2), 8 female 10-months-old APP/PS1 mice were used. The animals were housed in single cages in a temperature controlled holding room (21.5°C±1) with 12∶12 h light and dark cycle. Food and water was available ad libitum.
(§2) For experiment 2, 4 animals were injected intraperitonially (i.p.) with 0.9% NaCl (vehicle control) and the other 4 with RI-OR2-TAT (100 nmol/kg in 0.9% NaCl) once daily, for 21 days. […]
(§3) For experiment 2 (effects on brain pathology), sections were examined for activated microglia (using anti-Iba-1 antibody), oxidative stress (anti-8-oxo-guanine antibody), immature neurons (anti-doublecourtin antibody) or total plaque load (anti-Aβ antibody). […] Oxidative stress was assessed by denaturing DNA in each section using 2N HCl and the sections were then stained for 8-oxo guanine (1∶200 dilution, MAB3560, Millipore). Young immature neurons were detected by immunostaining for doublecortin (1∶200 dilution, sc-66911, Santa Cruz Biotechnology). Total plaque load was quantified by immunostaining for β-amyloid (1∶200 dilution, Invitrogen, 71–5800).
(§4) All sections were visualized using an Axio Scope 1 fluorescence microscope (Zeiss, Germany). […]

[3] = system: 8-oxo-guanine in APP/PS1 mouse cortex; test: Oxidative stress, 8-oxo-guanine immunostaining, cortex; format: in vivo; conditions: 100 nmol/kg i.p. once daily, 21 days, 10 months old APP/PS1 mice, vs saline, p<0.0001, 4 animals per group
Procedure: as §1, §2, §3, §4

[4] = system: β-amyloid plaques in APP/PS1 mouse cortex; test: Amyloid plaque load, β-amyloid immunostaining, cortex; format: in vivo; conditions: 100 nmol/kg i.p. once daily, 21 days, 10 months old APP/PS1 mice, vs saline, p<0.0001, N = 4 per group
Procedure: as §1, §2, §3, §4

Aβ42 [5] = test: Thioflavin T (ThT) assay for Aβ fibrils; format: biochemical
Procedure: This method was the same as that published previously. Briefly, 60 µl samples of solutions containing Aβ42 (25 µM), ThT (15 µM) and between 0 and 125 µM RI-OR2 or RI-OR2–TAT, in 10 mM phosphate buffered saline (PBS), pH 7.4, were incubated in sealed, black, clear-bottomed 384-well plates (Corning). ThT fluorescence was monitored every 10 mins (λex = 442 nm, λem = 483 nm) for 48 h at 30°C in a Biotek Synergy 2 plate reader.

CC(=O)N[C@H](CCCNC(=N)N)C(=O)NCC(=O)N[C@H](Cc1ccccc1)C(=O)N[C@H](Cc1ccccc1)C(=O)N[C@@H](C(=O)N[C@H](CC(C)C)C(=O)N[C@H](CCCCN)C(=O)NCC(=O)N[C@H](CCCNC(=N)N)C(=O)N[C@H](CCCNC(=N)N)C(=O)N[C@H](CCCNC(=N)N)C(=O)N[C@H](CCCNC(=N)N)C(=O)N[C@H](CCC(N)=O)C(=O)N[C@H](CCCNC(=N)N)C(=O)N[C@H](CCCNC(=N)N)C(=O)N[C@H](CCCCN)C(=O)N[C@H](CCCCN)C(=O)N[C@H](CCCNC(=N)N)C(=O)NCC(=O)N[C@H](Cc1ccc(O)cc1)C(N)=O)C(C)C [RI-OR2-TAT, Ac-rGffvlkGrrrrqrrkkrGy-NH2] (HELM PEPTIDE1{[ac].[dR].G.[dF].[dF].[dV].[dL].[dK].G.[dR].[dR].[dR].[dR].[dQ].[dR].[dR].[dK].[dK].[dR].G.[dY].[am]}$$$$V2.0)
development of immunoassay signal (oligomer formation) (Aβ42 [1]): considerably reduced the development of an immunoassay signal
reduction of number of activated microglia [2]: 44%
reduction of 8-oxo-guanine immunostaining (oxidative damage) [3]: 25%
reduction of amyloid plaque load [4]: 32%
ThT inhibition compared with RI-OR2 (Aβ42 [5]; 48 h, 25 µM Aβ42, PBS pH 7.4, same molar ratios): slightly better inhibitor than RI-OR2
ThT fluorescence after incubation of Aβ42 with inhibitor (Aβ42 [5]; 48 h, 30°C, 25 µM Aβ42, 15 µM ThT, 10 mM PBS pH 7.4, molar ratios 1∶1, 1∶2, 1∶4 and 1∶10 (inhibitor:Aβ42)): lower fluorescence
inhibition of Aβ42 aggregation (Fig. 1) (Aβ42 [5]; ThT, 25 µM Aβ42, 48 h, figure title): inhibit the aggregation of Aβ42
